Key:
recombinant AtCKX2 = biological target: T1, recombinant AtCKX2 (Arabidopsis thaliana, UniProt Q9FUJ3); test: Inhibition of cytokinin oxidase/dehydrogenase activity (PMS/MTT microtitre plate assay); format: biochemical; details: 30 μM iP as substrate, pH 7.4, 37° C.; means of three replicates; read-out: IC50, inhibition of recombinant AtCKX2
T1 sequence (Q9FUJ3 23-501): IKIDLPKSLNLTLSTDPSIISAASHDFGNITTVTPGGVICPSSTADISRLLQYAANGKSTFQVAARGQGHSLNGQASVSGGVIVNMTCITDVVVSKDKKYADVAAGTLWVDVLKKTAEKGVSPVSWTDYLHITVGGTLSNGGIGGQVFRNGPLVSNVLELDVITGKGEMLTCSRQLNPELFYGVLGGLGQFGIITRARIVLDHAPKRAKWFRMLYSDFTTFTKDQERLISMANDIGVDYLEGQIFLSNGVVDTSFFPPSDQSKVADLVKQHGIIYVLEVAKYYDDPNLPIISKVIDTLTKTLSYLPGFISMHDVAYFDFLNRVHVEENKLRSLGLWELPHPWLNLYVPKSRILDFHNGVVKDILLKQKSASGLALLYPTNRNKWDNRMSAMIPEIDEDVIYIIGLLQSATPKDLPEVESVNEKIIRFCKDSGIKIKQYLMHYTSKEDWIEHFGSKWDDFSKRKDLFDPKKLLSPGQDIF
Outline: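 Cell-free culture medium of S. cerevisiae 23344c expressing AtCKX2 was incubated with compound (3×10^−7–3×10^−4 M) and 30 μM iP in 0.1 M KH2PO4 pH 7.4 with 1 mM MTT/0.2 mM PMS, 30 min, 37 °C, dark. A578 was read after acetic-acid stop, minus no-iP blank. IC50 came from dose-response curves, mean of three replicates.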

AHK3 = biological target: T2, AHK3 (Arabidopsis thaliana, UniProt Q9C5U1); test: Activation of cytokinin receptors (E. coli KMI001 beta-galactosidase reporter); format: cell-based; details: 28 h incubation; n.a. means no activation
T2 sequence (Q9C5U1 1-1036): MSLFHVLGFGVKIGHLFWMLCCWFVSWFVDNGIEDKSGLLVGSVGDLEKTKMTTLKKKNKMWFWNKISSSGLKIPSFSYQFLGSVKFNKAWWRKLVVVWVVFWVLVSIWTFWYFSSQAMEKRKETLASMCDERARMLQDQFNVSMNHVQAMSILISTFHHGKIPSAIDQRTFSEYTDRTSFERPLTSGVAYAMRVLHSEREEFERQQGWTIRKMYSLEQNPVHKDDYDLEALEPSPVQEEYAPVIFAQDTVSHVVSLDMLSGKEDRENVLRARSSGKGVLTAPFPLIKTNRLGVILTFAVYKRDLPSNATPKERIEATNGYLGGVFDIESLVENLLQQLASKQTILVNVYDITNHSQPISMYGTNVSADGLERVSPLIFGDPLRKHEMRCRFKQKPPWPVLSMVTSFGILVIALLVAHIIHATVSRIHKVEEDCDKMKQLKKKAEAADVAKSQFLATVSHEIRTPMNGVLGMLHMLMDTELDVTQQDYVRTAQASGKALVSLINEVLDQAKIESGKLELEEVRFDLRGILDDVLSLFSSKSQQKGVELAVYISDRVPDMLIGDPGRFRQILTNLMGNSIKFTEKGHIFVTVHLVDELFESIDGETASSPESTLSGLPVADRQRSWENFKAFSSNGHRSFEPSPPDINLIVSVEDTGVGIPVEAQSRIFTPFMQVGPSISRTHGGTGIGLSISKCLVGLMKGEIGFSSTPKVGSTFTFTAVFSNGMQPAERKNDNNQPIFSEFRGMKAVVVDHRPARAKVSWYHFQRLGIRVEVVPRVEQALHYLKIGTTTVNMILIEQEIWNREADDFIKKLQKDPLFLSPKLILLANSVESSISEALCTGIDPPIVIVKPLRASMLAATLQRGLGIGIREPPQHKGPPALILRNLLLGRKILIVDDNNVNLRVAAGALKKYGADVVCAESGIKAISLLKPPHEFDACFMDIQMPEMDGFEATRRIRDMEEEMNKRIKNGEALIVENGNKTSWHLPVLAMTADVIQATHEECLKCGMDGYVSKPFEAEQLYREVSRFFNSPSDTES
Outline: (§1)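 E. coli KMI001 carrying the receptor plasmid was grown in M9 + 0.1% casamino acids at 25 °C, diluted 1:600 and treated with compound (stock solutions 10^-7–5×10^-5 M). Supernatant β-galactosidase was read by 4-methylumbelliferyl galactoside hydrolysis (1 h, 37 °C, Na2CO3 stop). EC50 came from dose-response curves, triplicate means.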

CRE1/AHK4 = CRE1/AHK4 (Arabidopsis thaliana, UniProt Q9C5U0); test: as above; format: cell-based; details: 17 h incubation; n.a. means no activation
Chain of CRE1/AHK4 (Q9C5U0 whole entry): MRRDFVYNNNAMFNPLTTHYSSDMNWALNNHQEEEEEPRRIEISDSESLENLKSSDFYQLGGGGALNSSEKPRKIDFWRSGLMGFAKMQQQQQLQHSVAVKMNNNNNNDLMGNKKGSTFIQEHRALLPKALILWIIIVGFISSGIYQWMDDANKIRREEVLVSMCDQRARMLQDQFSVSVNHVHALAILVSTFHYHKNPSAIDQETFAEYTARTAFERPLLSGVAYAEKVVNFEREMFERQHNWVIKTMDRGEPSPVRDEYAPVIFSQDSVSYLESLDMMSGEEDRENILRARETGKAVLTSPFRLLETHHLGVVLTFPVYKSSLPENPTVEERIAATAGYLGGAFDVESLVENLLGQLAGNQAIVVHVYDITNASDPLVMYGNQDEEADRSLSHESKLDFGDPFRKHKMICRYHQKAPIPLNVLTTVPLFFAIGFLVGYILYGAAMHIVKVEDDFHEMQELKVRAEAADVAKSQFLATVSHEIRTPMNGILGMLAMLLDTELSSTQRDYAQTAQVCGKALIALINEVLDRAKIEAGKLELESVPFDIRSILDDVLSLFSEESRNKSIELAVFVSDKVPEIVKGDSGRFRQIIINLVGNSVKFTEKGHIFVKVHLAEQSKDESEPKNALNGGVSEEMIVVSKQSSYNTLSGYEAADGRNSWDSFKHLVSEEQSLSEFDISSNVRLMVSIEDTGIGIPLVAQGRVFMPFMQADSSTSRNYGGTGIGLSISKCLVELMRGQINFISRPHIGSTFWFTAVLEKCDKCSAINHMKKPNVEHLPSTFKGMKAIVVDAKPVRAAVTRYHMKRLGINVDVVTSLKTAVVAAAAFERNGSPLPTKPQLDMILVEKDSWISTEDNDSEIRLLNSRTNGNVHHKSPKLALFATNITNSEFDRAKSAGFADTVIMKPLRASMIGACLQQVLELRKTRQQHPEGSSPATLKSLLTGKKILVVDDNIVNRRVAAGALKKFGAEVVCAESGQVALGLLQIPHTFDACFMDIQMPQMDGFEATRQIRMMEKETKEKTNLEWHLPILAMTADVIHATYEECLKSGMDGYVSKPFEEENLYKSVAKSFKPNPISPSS
Outline: as §1

Compound | IC50 (recombinant AtCKX2) [µM] | EC50 (AHK3) [µM] | EC50 (CRE1/AHK4) [µM]
Clc1nc(Nc2ccccc2)c2[nH]cnc2n1 [Compound 1, 2-Chloro-6-anilinopurine] | 22.6 | – | –
Clc1cccc(Nc2nc(Cl)nc3nc[nH]c23)c1 [Compound 3, 2-Chloro-6-(3-chloroanilino)purine] | 6.3 | 20 | 7.5
Clc1ccc(Nc2nc(Cl)nc3[nH]cnc23)cc1 [Compound 4] | 24.1 | – | –
Fc1cccc(Nc2nc(Cl)nc3nc[nH]c23)c1 [Compound 6, 2-Chloro-6-(3-fluoroanilino)purine] | 12.2 | – | –
Oc1cccc(Nc2nc(Cl)nc3nc[nH]c23)c1 [Compound 9, 2-Chloro-6-(3-hydroxyanilino)purine] | 3.5 | 2.8 | 37.1
COc1cccc(Nc2nc(Cl)nc3nc[nH]c23)c1 [Compound 12, 2-Chloro-6-(3-methoxyanilino)purine] | 0.8 | 9.5 | 31.3
Fc1nc(Nc2ccccc2)c2nc[nH]c2n1 [Compound 40] | – | 19 | 46.2
Fc1nc(Nc2cccc(Cl)c2)c2nc[nH]c2n1 [Compound 42] | 15.3 | 31.6 | 21
Oc1cccc(Nc2nc(F)nc3[nH]cnc23)c1 [Compound 48] | 11.8 | 15 | 49.6
COc1cccc(Nc2nc(F)nc3nc[nH]c23)c1 [Compound 51, 2-Fluoro-6-(3-methoxyanilino)purine] | 0.4 | 22.7 | 43
Nc1nc(Nc2cccc(Cl)c2)c2nc[nH]c2n1 [Compound 66] | 25.6 | 43 | –
Nc1nc(Nc2cccc(O)c2)c2nc[nH]c2n1 [Compound 72] | – | 7.7 | > 50
Fc1cccc(Nc2nc(S)nc3[nH]cnc23)c1 [Compound 83] | 22.6 | > 50 | –

From patent publication US8222260B2, “Substituted 6-anilinopurine derivatives as inhibitors of cytokinin oxidase/dehydrogenase and preparations containing these derivatives” (Univerzita Palackego V Olomouci, priority 2007, dated 2012)
